According to US20140249135A1, “PIM KINASE INHIBITORS AND METHODS OF THEIR USE” (NOVARTIS AG, priority 2007, published 2014):

Legend:
Assay type in all cases: biochemical
Pim1 kinase = Pim1 kinase (Homo sapiens, UniProt P11309); assay: Pim1 ATP depletion assay; details: Pim1 ATP depletion assay; read-out: PIM1 IC50;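 further: Luciferase-luciferin luminescence readout of residual ATP after PIM1 transfers phosphate to a peptide substrate, 40 µM ATP added, reaction run to roughly half ATP consumption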
Chain of Pim1 kinase (P11309 whole entry): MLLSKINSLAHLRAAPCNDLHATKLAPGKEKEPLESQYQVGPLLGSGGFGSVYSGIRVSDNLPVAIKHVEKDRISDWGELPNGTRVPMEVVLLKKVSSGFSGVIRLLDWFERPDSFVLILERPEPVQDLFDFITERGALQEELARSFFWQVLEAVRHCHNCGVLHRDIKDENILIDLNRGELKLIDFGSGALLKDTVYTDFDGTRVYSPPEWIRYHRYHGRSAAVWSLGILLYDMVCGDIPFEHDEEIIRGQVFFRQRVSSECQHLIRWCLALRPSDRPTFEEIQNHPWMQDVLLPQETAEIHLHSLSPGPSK

Pim2 kinase = Pim2 kinase (Homo sapiens, UniProt Q9P1W9); assay: Pim2 ATP depletion assay; details: read-out: PIM2 IC50;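 further: Luciferase-based luminescent readout of ATP remaining after PIM2 phosphorylates a BAD peptide, final 5 nM enzyme, 4 µM ATP, 10 µM peptide, 2.5% DMSO, run to roughly half ATP consumption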
Chain of Pim2 kinase (Q9P1W9 whole entry): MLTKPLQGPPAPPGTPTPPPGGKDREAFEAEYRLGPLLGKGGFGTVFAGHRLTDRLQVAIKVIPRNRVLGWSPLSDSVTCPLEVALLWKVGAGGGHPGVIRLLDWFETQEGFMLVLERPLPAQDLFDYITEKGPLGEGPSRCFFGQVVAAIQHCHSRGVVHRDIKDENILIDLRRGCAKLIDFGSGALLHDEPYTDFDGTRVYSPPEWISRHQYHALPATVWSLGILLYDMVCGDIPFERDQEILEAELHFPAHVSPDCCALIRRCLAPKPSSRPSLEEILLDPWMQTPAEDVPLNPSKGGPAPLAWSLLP

Pim3 kinase = Pim3 kinase (Homo sapiens, UniProt Q86V86); assay: Pim3 ATP depletion assay; details: read-out: PIM3 IC50

Measured: IC50

Cc1cnccc1-c1ccncc1NC(=O)c1nc(-c2ccccc2F)ccc1N [Example 613, 3-amino-6-(2-fluorophenyl)-N-(3′-methyl-4,4′-bipyridin-3-yl)pyridine-2-carboxamide]
< 1000 nM: all assays above

Nc1ccc(-c2ccccc2F)nc1C(=O)Nc1cnccc1-c1ccncc1Cl [Example 615, 3-amino-N-(3′-chloro-4,4′-bipyridin-3-yl)-6-(2-fluorophenyl)pyridine-2-carboxamide]
< 1000 nM: all assays above

Nc1ccc(-c2ccccc2F)nc1C(=O)Nc1cnccc1-c1ccncc1F [Example 616, 3-amino-N-(3′-fluoro-4,4′-bipyridin-3-yl)-6-(2-fluorophenyl)pyridine-2-carboxamide]
< 1000 nM: all assays above

Nc1cc(-c2ccncc2NC(=O)c2nc(-c3c(F)cccc3F)ccc2N)ccn1 [Example 617, 3-amino-N-(2′-amino-4,4′-bipyridin-3-yl)-6-(2,6-difluorophenyl)pyridine-2-carboxamide]
< 1000 nM: all assays above

N#Cc1cc(-c2ccncc2NC(=O)c2nc(-c3c(F)cccc3F)ccc2N)ccn1 [Example 618, 3-amino-N-(2′-cyano-4,4′-bipyridin-3-yl)-6-(2,6-difluorophenyl)pyridine-2-carboxamide]
< 1000 nM: all assays above

Cc1cc(-c2ccncc2NC(=O)c2nc(-c3c(F)cccc3F)c(F)cc2N)cc(N)n1 [Example 619, 3-amino-N-(2′-amino-6′-methyl-4,4′-bipyridin-3-yl)-6-(2,6-difluorophenyl)-5-fluoropyridine-2-carboxamide]
< 1000 nM: all assays above

CCc1cc(-c2ccncc2NC(=O)c2nc(-c3c(F)cccc3F)ccc2N)cc(N)n1 [Example 620, 3-Amino-6-(2,6-difluoro-phenyl)-pyridine-2-carboxylic acid (6′-amino-2′-ethyl-[4,4′]bipyridinyl-3-yl)-amide]
< 1000 nM: all assays above

Nc1ccc(-c2c(F)cccc2F)nc1C(=O)Nc1cnccc1-c1cc(Cl)nc(C(F)(F)F)c1 [Example 621, 3-amino-N-[2′-chloro-6′-(trifluoromethyl)-4,4′-bipyridin-3-yl]-6-(2,6-difluorophenyl)pyridine-2-carboxamide]
< 1000 nM: all assays above

COc1cc(N)nc(-c2ccncc2NC(=O)c2nc(-c3c(F)cccc3F)ccc2N)c1 [Example 622, 3-Amino-6-(2,6-difluoro-phenyl)-pyridine-2-carboxylic acid (6-amino-4-methoxy-[2,4′]bipyridinyl-3′-yl)-amide]
< 1000 nM: all assays above

Cc1cc(-c2ccncc2NC(=O)c2nc(-c3c(F)cccc3F)ccc2N)cc(N)n1 [Example 623, 3-amino-N-(2′-amino-6′-methyl-4,4′-bipyridin-3-yl)-6-(2,6-difluorophenyl)pyridine-2-carboxamide]
< 1000 nM: all assays above

Cc1cc(-c2ccncc2NC(=O)c2nc(-c3ccccc3F)ccc2N)cc(N)n1 [Example 624, 3-amino-N-(2′-amino-6′-methyl-4,4′-bipyridin-3-yl)-6-(2-fluorophenyl)pyridine-2-carboxamide]
< 1000 nM: all assays above

Nc1cncc(-c2ccncc2NC(=O)c2nc(-c3ccccc3F)ccc2N)n1 [Example 625, 3-amino-N-[4-(6-amino-pyrazin-2-yl)pyridin-3-yl]-6-(2-fluorophenyl)pyridine-2-carboxamide]
< 1000 nM: all assays above

Cc1cc(-c2ccncc2NC(=O)c2nc(-c3ccccc3F)ccc2N)nc(N)n1 [Example 626, 3-amino-N-[4-(2-amino-6-methylpyrimidin-4-yl)-pyridin-3-yl]-6-(2-fluoro-phenyl)pyridine-2-carboxamide]
< 1000 nM: all assays above

Nc1cc(-c2ccncc2NC(=O)c2nc(-c3ccccc3F)ccc2N)nc(N)n1 [Example 627, 3-amino-N-[4-(2,6-diaminopyrimidin-4-yl)pyridin-3-yl]-6-(2-fluorophenyl)pyridine-2-carboxamide]
< 1000 nM: all assays above

Nc1nccc(-c2ccncc2NC(=O)c2nc(-c3c(F)cccc3F)ccc2N)n1 [Example 628, 3-amino-N-[4-(2-aminopyrimidin-4-yl)pyridin-3-yl]-6-(2,6-difluorophenyl)pyridine-2-carboxamide]
< 1000 nM: all assays above

Nc1ccc(-c2c(F)cccc2F)nc1C(=O)Nc1cnccc1-c1cccnc1N [Example 630, 3-amino-N-(2-amino-3,4′-bipyridin-3′-yl)-6-(2,6-difluorophenyl)pyridine-2-carboxamide]
< 1000 nM: all assays above

N[C@H]1CCCN(c2ccncc2NC(=O)c2cccc(-c3nccs3)n2)C1 [Example 631, N-{4-[(3S)-3-amino-piperidin-1-yl]pyridin-3-yl}-6-(1,3-thiazol-2-yl)pyridine-2-carboxamide]
< 1000 nM: all assays above

Nc1ccc(-c2nccs2)nc1C(=O)Nc1cnccc1N1CCC[C@H](N)C1 [Example 632, 3-amino-N-{4-[(3S)-3-aminopiperidin-1-yl]pyridin-3-yl}-6-(1,3-thiazol-2-yl)-pyridine-2-carboxamide]
< 1000 nM: all assays above

Nc1cc(-c2ccncc2NC(=O)c2nc(C3CCCCC3)ccc2N)nc(C(F)(F)F)n1 [Example 633, 3-Amino-6-cyclohexyl-pyridine-2-carboxylic acid [4-(6-amino-2-trifluoro-methyl-pyrimidin-4-yl)-pyridin-3-yl]-amide]
< 1000 nM: all assays above

CCC(CC)c1ccc(N)c(C(=O)Nc2cnccc2N2CCC[C@H](N)C2)n1 [Example 634, 3-Amino-6-(1-ethyl-propyl)-pyridine-2-carboxylic acid (3-amino-3,4,5,6-tetrahydro-2H-[1,4′]bipyridinyl-3′-yl)-amide]
< 1000 nM: all assays above

N[C@H]1CCCN(c2ccncc2NC(=O)c2cccc(C3CCCCC3)n2)C1 [Example 635, 6-Cyclohexyl-pyridine-2-carboxylic acid (3-amino-3,4,5,6-tetrahydro-2H-[1,4′]bipyridinyl-3′-yl)-amide]
< 1000 nM: all assays above

Cc1ccc(N)c(C(=O)Nc2cnccc2N2CCC[C@H](N)C2)n1 [Example 637, 3-amino-N-{4-[(3S)-3-aminopiperidin-1-yl]pyridin-3-yl}-6-methylpyridine-2-carboxamide]
< 1000 nM: all assays above

Nc1ccc(C2CC2)nc1C(=O)Nc1cnccc1N1CCC[C@H](N)C1 [Example 638, 3-amino-N-{4-[(3S)-3-aminopiperidin-1-yl]pyridin-3-yl}-6-cyclopropyl-pyridine-2-carboxamide]
< 1000 nM: all assays above

CCc1ccc(N)c(C(=O)Nc2cnccc2N2CCC[C@H](N)C2)n1 [Example 639, 3-amino-N-{4-[(3S)-3-aminopiperidin-1-yl]pyridin-3-yl}-6-ethylpyridine-2-carboxamide]
< 1000 nM: all assays above

Nc1cc(-c2ccncc2NC(=O)c2nc(-c3nccs3)ccc2N)cc(C(F)(F)F)n1 [Example 640, 3-amino-N-[2′-amino-6′-(trifluoromethyl)-4,4′-bipyridin-3-yl]-6-(1,3-thiazol-2-yl)pyridine-2-carboxamide]
< 1000 nM: all assays above

Cc1cc(-c2ccncc2NC(=O)c2nc(-c3nccs3)ccc2N)cc(N)n1 [Example 641, 3-amino-N-(2′-amino-6′-methyl-4,4′-bipyridin-3-yl)-6-(1,3-thiazol-2-yl)pyridine-2-carboxamide]
< 1000 nM: all assays above

Nc1cc(-c2ccncc2NC(=O)c2nc(-c3nccs3)ccc2N)nc(C(F)(F)F)n1 [Example 642, 3-amino-N-{4-[6-amino-2-(trifluoromethyl)pyrimidin-4-yl]pyridin-3-yl}-6-(1,3-thiazol-2-yl)pyridine-2-carboxamide]
< 1000 nM: all assays above

Cc1nc(N)cc(-c2ccncc2NC(=O)c2nc(-c3nccs3)ccc2N)n1 [Example 643, 3-amino-N-[4-(6-amino-2-methylpyrimidin-4-yl)pyridin-3-yl]-6-(1,3-thiazol-2-yl)pyridine-2-carboxamide]
< 1000 nM: all assays above
